Experimental data published in ChEMBL document CHEMBL1177695, “Discovery and development of natural product-derived chemotherapeutic agents based on a medicinal chemistry approach” (J Nat Prod, 2010).
pEC50, pIC50: −log10 of the molar value. Values after ≈ are worked out from the molar mass of the structure shown.

How the values were obtained:
[1] = Antitumor activity against rat Walker 256 cells allografted in rat at 2.5 mg/kg relative to control; type: functional
[2] = tested on: ZR-75-1; experiment: Cytotoxicity against human ZR-75-1 cells after 72 hrs by sulforhodamine B assay; type: functional; settings: ZR-75-1, 72 h, read-out: ED50 (the source's name)
[3] = tested on: MDA-MB-231; experiment: Cytotoxicity against human MDA-MB-231 cells after 72 hrs by sulforhodamine B assay; type: functional; settings: MDA-MB-231, 72 h, read-out: ED50 (the source's name)
[4] = tested on: MCF7; experiment: Cytotoxicity against human MCF7 cells after 72 hrs by sulforhodamine B assay; type: functional; settings: MCF7, 72 h, read-out: ED50 (the source's name)
[5] = tested on: SK-BR-3; experiment: Cytotoxicity against human SK-BR-3 cells after 72 hrs by sulforhodamine B assay; type: functional; settings: SK-BR-3, 72 h, read-out: ED50 (the source's name)
[6] = tested on: Human immunodeficiency virus 1; experiment: Antiviral activity against HIV1 PI-R; type: functional, organism-based; settings: Human immunodeficiency virus 1, PI-R
[7] = tested on: Human immunodeficiency virus 1; experiment: Antiviral activity against HIV1 NL4-3; type: functional, organism-based; settings: Human immunodeficiency virus 1, NL4-3
[8] = Inhibition of tubulin polymerization
[9] = tested on: OVCAR-3; experiment: Antitumor activity against human OVCAR-3 cells xenografted in mouse assessed as increase in mouse life span; type: functional, cell-based
[10] = Cytotoxicity against human KBVIN cells after 3 days by sulforhodamine B assay; type: functional, cell-based; settings: 72 h
[11] = tested on: KB; experiment: Selectivity ratio of EC50 for human KB cells to EC50 for vincristine-resistant human KB cells; type: functional
[12] = tested on: P388; experiment: Antitumor activity against mouse P388 cells allografted in mouse at 8 mg/kg relative to control; type: functional
[13] = tested on: PC-3; experiment: Cytotoxicity against human PC3 cells after 2 days; type: functional, cell-based; settings: PC-3, 48 h
[14] = tested on: LNCaP; experiment: Cytotoxicity against human LNCAP cells after 2 days; type: functional, cell-based; settings: 48 h
[15] = tested on: A549; experiment: Cytotoxicity against human A549 cells; type: functional, cell-based; settings: Homo sapiens, A549
[16] = tested on: MCF7; experiment: Cytotoxicity against human MCF7 cells after 72 hrs by MTT assay; type: functional, cell-based; settings: MCF7, 72 h
[17] = tested on: MDA-MB-231; experiment: Cytotoxicity against human MDA-MB-231 cells after 72 hrs by MTT assay; type: functional, cell-based; settings: MDA-MB-231, 72 h
[18] = Cytotoxicity against human Hep3B cells after 72 hrs by MTT assay; type: functional, cell-based, Hep 3B2
[19] = tested on: ZR-75-1; experiment: Cytotoxicity against human ZR-75-1 cells; type: functional; settings: read-out: ED50 (the source's name)
[20] = tested on: MCF7; experiment: Cytotoxicity against human MCF7 cells; type: functional; settings: read-out: ED50 (the source's name)
[21] = tested on: SK-BR-3; experiment: Cytotoxicity against human SK-BR-3 cells overexpressing HER2; type: functional; settings: read-out: ED50 (the source's name)
[22] = tested on: HUVEC; experiment: Cytotoxicity against HUVEC after 3 days by sulforhodamine B assay; type: cell-based; settings: Homo sapiens, 72 h
[23] = tested on: KB; experiment: Cytotoxicity against human KB cells after 3 days by sulforhodamine B assay; type: functional, cell-based; settings: 72 h
[24] = tested on: HCT-8; experiment: Cytotoxicity against human HCT8 cells after 3 days by sulforhodamine B assay; type: functional, cell-based; settings: HCT-8, 72 h
[25] = tested on: PC-3; experiment: Cytotoxicity against human PC3 cells after 3 days by sulforhodamine B assay; type: functional, cell-based; settings: PC-3, 72 h
[26] = tested on: 1A9; experiment: Cytotoxicity against human 1A9 cells after 3 days by sulforhodamine B assay; type: functional, cell-based; settings: 1A9, 72 h
[27] = tested on: A549; experiment: Cytotoxicity against human A549 cells after 3 days by sulforhodamine B assay; type: functional, cell-based; settings: A549, 72 h
[28] = tested on: A-431; experiment: Cytotoxicity against human A431 cells after 3 days by sulforhodamine B assay; type: functional, cell-based; settings: A-431, 72 h
[29] = tested on: Aspergillus niger; experiment: Antifungal activity against Aspergillus niger; type: functional
[30] = tested on: Staphylococcus aureus; experiment: Antibacterial activity against Staphylococcus aureus; type: functional
[31] = tested on: Pseudomonas fluorescens; experiment: Antibacterial activity against Pseudomonas fluorescens; type: functional
[32] = tested on: Aureobasidium pullulans; experiment: Antifungal activity against Aureobasidium pullulans; type: functional
[33] = tested on: Escherichia coli; experiment: Antibacterial activity against Escherichia coli; type: functional
[34] = tested on: Pseudomonas aeruginosa; experiment: Antibacterial activity against Pseudomonas aeruginosa; type: functional
[35] = tested on: Hep-2 (human); experiment: Cytotoxicity against human Hep-2 cells; settings: read-out: ED50 (the source's name)

With C=C1C(=O)O[C@@H]2C[C@@H](C)[C@@H]3[C@@H]4CC(=O)[C@@]3(C[C@H]12)[C@@]1(C4)C(=O)O[C@@H]2C[C@@H](C)[C@@H]3C=CC(=O)[C@@]3(C)[C@@H](O)[C@@H]21 [MICROLENIN] the T/C [1] was 173%.
COc1cccc2c1ccc1c3occ(C)c3c(=O)oc21 gave an EC50 [2] of 0.1 µg/mL (≈ 0.357 µM), an EC50 [3] of 6.4 µg/mL (≈ 22.8 µM) and an EC50 [4] of 2.3 µg/mL (≈ 8.21 µM). It also gave an EC50 [5] of 0.2 µg/mL (≈ 0.714 µM).
CC(C)C[C@@H](NC(=O)[C@]12CCC(C)(C)C=C1[C@H]1CC[C@@H]3[C@@]4(C)CC[C@H](OC(=O)CC(C)(C)C(=O)O)C(C)(C)[C@@H]4CC[C@@]3(C)[C@]1(C)CC2)C(=O)O gave a pEC50 [6] of 7.68 and a pEC50 [7] of 8.07.
In the case of O=c1cc(-c2ccccc2F)[nH]c2cc3c(cc12)OCO3, the pIC50 [8] was 6.07 and the Activity [9] was 130%.
With CCC1=C(O)c2c(oc(-c3ccc(C)cc3)cc2=O)C(CC)(CC)C1=O [6,8,8-TRIETHYL-4-METHYL DESMOSDUMOTIN B] the EC50 [10] was 0.03 µg/mL (≈ 0.0851 µM) and the “Ratio EC50” value [11] was greater than 460.
For C=C1C(=O)O[C@@H]2C[C@@H](C)[C@H]3C=CC(=O)[C@@]3(C)[C@@H](OC(=O)CCCC(=O)O[C@H]3[C@H]4C(=C)C(=O)O[C@@H]4C[C@H](C)[C@H]4C=CC(=O)[C@]43C)[C@@H]12, the T/C [12] was 195%.
CCOC(=O)/C=C/C(C(=O)/C=C/c1ccc(OC)c(OC)c1)=C(O)\C=C\c1ccc(OC)c(OC)c1 showed a pIC50 [13] of 6.00 and a pIC50 [14] of 6.70.
Work on COc1ccc2c(CNCCCCCCO)cc3cc4c(cc3c2c1)OCO4 yielded a pIC50 [15] of 6.89.
O=C1C=CC(O)(c2cc(=O)c3c(ccc4ccccc43)o2)C=C1 gave an IC50 [16] of 0.66 µg/mL (≈ 2.17 µM), an IC50 [17] of 0.39 µg/mL (≈ 1.28 µM) and an IC50 [18] of 0.3 µg/mL (≈ 0.986 µM).
In the case of CCc1cccc2c1ccc1c3occ(C)c3c(=O)oc21, the EC50 [19] was 0.18 µg/mL (≈ 0.647 µM), the EC50 [20] was 0.45 µg/mL (≈ 1.62 µM) and the EC50 [21] was 0.1 µg/mL (≈ 0.359 µM).
With COC1=C(C)C(O)=C(C(=O)/C=C/c2ccccc2)C(=O)C1(C)C [DESMOSDUMOTIN C] the EC50 [22] was 3 µg/mL (≈ 9.6 µM), the EC50 [10] was 3 µg/mL (≈ 9.6 µM) and the EC50 [23] was 3 µg/mL (≈ 9.6 µM). For the same compound, the EC50 [24] was 3 µg/mL (≈ 9.6 µM), the EC50 [25] was 3 µg/mL (≈ 9.6 µM) and the EC50 [26] was 3 µg/mL (≈ 9.6 µM). For the same compound, the EC50 [27] was 3 µg/mL (≈ 9.6 µM) and the EC50 [28] was 3 µg/mL (≈ 9.6 µM).
O=C1c2ccccc2C(=O)c2c(NCC3CO3)ccc(NCC3CO3)c21 (stereo not drawn) gave an MIC [29] of 0.13 µg/mL (≈ 0.371 µM), an MIC [30] of 0.13 µg/mL (≈ 0.371 µM) and an MIC [31] of 0.13 µg/mL (≈ 0.371 µM). For the same compound, the MIC [32] was 0.13 µg/mL (≈ 0.371 µM), the MIC [33] was 250 µg/mL (≈ 714 µM) and the MIC [34] was 63 µg/mL (≈ 180 µM).
For C=C1C(=O)O[C@@H]2C[C@@H](C)[C@@H]3C=CC(=O)[C@@]3(C)[C@@H](O)[C@H]12 [HELENALIN], the EC50 [35] was 0.08 µg/mL (≈ 0.305 µM), the T/C [1] was 316% and the T/C [12] was 162%.
